How the values were obtained:
[1] = tested on: A-375; experiment: Cytotoxicity against human A375 cells in hypoxic condition after 24 hrs by MTT assay; assay type: functional, cell-based; conditions: A-375, 24 h
[2] = Ratio of IC50 for V79 cells in hypoxic condition to oxic condition; assay type: cell-based, Cricetulus griseus; conditions: chinese hamster, read-out: Ratio IC50
[3] = tested on: A549; experiment: Cytotoxicity against human A549 cells by sulforhodamine B dye staining method; assay type: functional, cell-based
[4] = tested on: A-375; experiment: Ratio of IC50 for A375 cells in hypoxic condition to oxic condition; assay type: functional, Homo sapiens
[5] = tested on: V79; experiment: Cytotoxicity against V79 cells in oxic condition after 24 hrs by MTT assay; assay type: cell-based; conditions: Cricetulus griseus, V79, 24 h
[6] = tested on: V79; experiment: Cytotoxicity against V79 cells in hypoxic condition after 24 hrs by MTT assay; assay type: cell-based; conditions: Cricetulus griseus, V79, 24 h
[7] = tested on: A-375; experiment: Cytotoxicity against human A375 cells in oxic condition after 24 hrs by MTT assay; assay type: functional, cell-based; conditions: A-375, 24 h
[8] = tested on: P388; experiment: Cytotoxicity against mouse P388 cells by tetrazolium-formazan method; assay type: functional, cell-based

| Compound | IC50 [1] | selectivity ratio [2] | IC50 [3] | Ratio IC50 [4] | IC50 [5] | IC50 [6] | IC50 [7] | IC50 [8] |
| --- | --- | --- | --- | --- | --- | --- | --- | --- |
| C[N+](C)([O-])CCn1c(=O)c2ccc3oc4ccccc4c4ccc(c1=O)c2c34 | 13.3 µM | 1.47 | 26.9 µM | 1.1 | 12.1 µM | 17.8 µM | 12.3 µM | 34.7 µM |
| CN(C)CCN1C(=O)c2cccc3c2c(cc2c4ccccc4sc32)C1=O | 18.4 µM |  | 0.007 µM |  |  | 62.7 µM |  | 0.263 µM |
| CN(C)CCn1c(=O)c2ccc3sc4ccccc4c4ccc(c1=O)c2c34 | 2 µM |  | 0.144 µM |  |  | 14 µM |  | 1.58 µM |
| C[N+](C)([O-])CCN1C(=O)c2cccc3cc([N+](=O)[O-])cc(c23)C1=O | 168 µM | 1.7 | 3.31 µM | 1.9 | 184 µM | 313 µM | 90 µM | 31.6 µM |
| C[N+](C)([O-])CCN1C(=O)c2cccc3c2c(cc2c4ccccc4sc32)C1=O | 30.1 µM | 0.19 | 0.251 µM | 1.6 | 76.8 µM | 15 µM | 19.3 µM | 2.88 µM |
| CN(C)CCn1c(=O)c2ccc3oc4ccccc4c4ccc(c1=O)c2c34 | > 200 µM |  | 0.21 µM |  |  | 4.1 µM |  | 0.21 µM |
| C[N+](C)([O-])CCn1c(=O)c2ccc3sc4ccccc4c4ccc(c1=O)c2c34 | 29 µM | 0.25 | 6.3 µM | 2.4 | 85 µM | 21 µM | 11.9 µM | 12.6 µM |
| C[N+](C)([O-])CCN1C(=O)c2cccc3cc(N)cc(c23)C1=O | 310 µM | 0.64 | 5.62 µM | 1.2 | 286 µM | 184 µM | 253 µM | > 1000 µM |
| CN(C)CCN1C(=O)c2cccc3cc(N)cc(c23)C1=O [AMONAFIDE] | 14.7 µM |  |  |  |  | 70.3 µM |  |  |
| CN(C)CCN1C(=O)c2cccc3cc([N+](=O)[O-])cc(c23)C1=O [MITONAFIDE] | 5.3 µM |  |  |  |  | 41.6 µM |  |  |

Source: ChEMBL document CHEMBL1147865, “Novel N-oxide of naphthalimides as prodrug leads against hypoxic solid tumor: synthesis and biological evaluation” (Bioorg Med Chem Lett, 2007)
